Results taken from paper PMC11022729 (Advanced Science, 2024).
Where two headings read alike, the source gives them in different places.

What was measured:
[1] = Metabolic stability assay in rat liver microsomes; type: in vitro ADME; details: for metabolic stability: 10 µM, 15, 30 and 60 min
Method: We next assessed the metabolic stability of these compounds (10 µM) in rat liver microsomes (Figure 2A). […] Therefore, we assumed that the occupation of metabolically labile sites at the aromatic core and the reduction in electron density at the oxidizable nitrogen atom of the piperazine ring might increase metabolic stability. Indeed, both the introduction of fluorine at R^2 and the introduction of an electron‐withdrawing carboxylic acid linker at R^3 improved metabolic stability. The substitution of chlorine with a trifluoromethyl group at R^1 was also beneficial. In contrast, homopiperazine and hydroxy linkers were metabolically labile.
The solubilized test compound (5 µL, final concentration 10 µM) was preincubated at 37 °C in 432 µL phosphate buffer (0.1 M, pH 7.4) together with 50 µL NADPH regenerating system (30 mM glucose‐6‐phosphate, 4 U mL^−1 glucose 6‐phosphate dehydrogenase, 10 mM NADP, and 30 mM MgCl2). After 5 min, the reaction started upon the addition of 13 µL of microsome mix from the liver of Sprague‐Dawley rats (Invitrogen; 20 mg protein per mL in 0.1 M phosphate buffer) in a shaking water bath at 37 °C. The reaction was stopped by adding 500 µL ice‐cold methanol at 0, 15, 30, and 60 min. The samples were centrifuged at 5000 × g for 5 min at 4 °C and the test compound was quantified from the supernatants by HPLC; the composition of the mobile phase was adapted to the test compound in a range of MeOH 40−90% and water (0.1% formic acid) 10−60%. Flow rate: 1 mL min^−1; stationary phase: Purospher STAR, RP18, 5 µm, 125 × 4; precolumn: Purospher STAR, RP18, 5 µm, 4 × 4; detection wavelength: 254 and 280 nm; injection volume: 50 µL. Control samples were used to evaluate the stability of the test compounds in the reaction mixture. The first control was without NADPH, which is needed for the enzymatic activity of the microsomes, the second control was with inactivated microsomes (incubated for 20 min at 90 °C), and the third control was without the test compound (to determine the baseline). The amounts of test compounds were quantified using an external calibration curve.

[2] = target: T1, adrenergic α1A receptor (Homo sapiens, UniProt P35348); assay: SafetyScreen44 panel; type: binding
T1 construct: purchased Eurofins Cerep P270
Method: (§1) Measurements were performed in duplicate.
(§2) channel, which were obtainedfrom ratspecimens).
(§3) in brackets) specific for each target.

[3] = target: T2, dopamine D1 receptor (Homo sapiens, UniProt P21728); assay: SafetyScreen44 panel; type: binding
T2 construct: purchased Eurofins Cerep P270
Method: as §1, §2, §3

[4] = target: T3, dopamine D2S receptor (Homo sapiens, UniProt P14416); assay: SafetyScreen44 panel; type: binding
T3 construct: purchased Eurofins Cerep P270
Method: as §1, §2, §3

[5] = target: T4, norepinephrine transporter (NET) (Homo sapiens, UniProt P23975); assay: SafetyScreen44 panel; type: binding
T4 construct: purchased Eurofins Cerep P270
Method: as §1, §2, §3

[6] = target: T5, serotonin 5-HT2A receptor (Homo sapiens, UniProt P28223); assay: SafetyScreen44 panel; type: binding
T5 construct: purchased Eurofins Cerep P270
Method: as §1, §2, §3

[7] = target: T6, serotonin 5-HT2B receptor (Homo sapiens, UniProt P41595); assay: SafetyScreen44 panel; type: binding
T6 construct: purchased Eurofins Cerep P270
Method: as §1, §2, §3

[8] = target: T7, serotonin transporter (SET) (Homo sapiens, UniProt P31645); assay: SafetyScreen44 panel; type: binding
T7 construct: purchased Eurofins Cerep P270
Method: as §1, §2, §3

[9] = Pharmacokinetics in mice (plasma and brain levels, LC-MS); type: in vivo; details: mouse
Method: To prepare for in vivo studies, we investigated the pharmacokinetic properties of compound 6. […] For comparison, we determined the plasma and brain loxapine levels. […] Collectively, the pharmacological and pharmacokinetic profiles of compound 6 make it an excellent molecule for in vivo pharmacodynamic studies.
Pharmacokinetic experiments were performed by Bienta (Enamine Biology Services, Kiev, Ukraine). Study design, animal selection, handling, and treatment were performed in accordance with the Enamine PK study protocols and the Institutional Animal Care and Use Guidelines. Male C57BL/6J mice (11–16 weeks old) were used in this study. The animals were fasted for 4 h before dosing. […] Each timepoint treatment group included three animals, and a control group was employed, including one animal.
Before collecting blood and brain tissue, the mice were anesthetized with 2,2,2‐tribromoethanol (150 mg kg^−1 i.p.). In studies with i.p. compound administration, the chest was opened, an incision was made in the right atrium, whole blood was collected into tubes containing K2EDTA, and the animals were perfused with saline (10 mL) prior to the excision of the brain tissue (left lobe). In studies with p.o. or i.v. delivery of compounds, blood was collected from the orbital sinus in microtainers containing K3EDTA, the animals were sacrificed by cervical dislocation, and the brain tissue (left lobe) was excised. After collection, the blood samples were centrifuged for 10 min at 3000 rpm, and the brain samples were weighed. All samples were immediately processed, flash‐frozen, and stored at −70 °C until subsequent analysis.
The compound levels in the plasma and brain samples were determined using liquid chromatography–tandem mass spectrometry (LC‐MS/MS) by a staff member from Bienta. Pharmacokinetic data analysis was performed using non‐compartmental, bolus injection, or extravascular input analysis models with WinNonlin 5.2 (PharSight). Data below the lower limit of quantitation were presented as missing data to improve the validity of the half‐life calculations. For each treatment condition, the final concentration values obtained at each time point were analyzed for outliers using Grubbs' test, with the level of significance set at p < 0.05. The sum of the AUC0‐inf (area under the concentration‐time curve from zero to time infinity) was used to estimate the ratiobrain/plasma (concentration ratio of the compound in the brain and plasma).

[10] = test system: mice; assay: Vertical pole test; type: in vivo, mouse; details: 15 min after dosing
Method: As a prerequisite for interpreting itch behavior experiments, we first tested motor function after systemic dosing.
Mice were placed on a rotarod treadmill (Ugo Basile, Italy) at increasing speed (4–40 rpm over 300 s) and trained for 4–5 consecutive days. Only mice that reached 300 s without falling off during the training sessions were included in the experiment. In the vertical pole test, the mice were placed head‐upward on top of a vertical pole with a rough surface (diameter, 1 cm; height, 40 cm), and the time until the animals reached the ground was recorded (cut‐off time 20 s). Only mice that reached the ground within 10 s in the baseline measurements were included in the experiment. […] The means of three trials at each time point were calculated for further analyses.

[11] = male, C57BL/6J, ip, I.P. 10 mg/kg, brain
[12] = male, C57BL/6J, ip, I.P. 10 mg/kg, plasma
[13] = male, C57BL/6J, iv, I.V. 1 mg/kg, brain
[14] = male, C57BL/6J, iv, I.V. 1 mg/kg, plasma
[15] = male, C57BL/6J, po, P.O. 10 mg/kg, brain
[16] = male, C57BL/6J, po, P.O. 10 mg/kg, plasma
[17] = male, C57BL/6J, ip, I.P. 2.5 mg/kg, brain
[18] = male, C57BL/6J, ip, I.P. 2.5 mg/kg, plasma

T3 sequence (P14416 1-414 isoform P14416-2): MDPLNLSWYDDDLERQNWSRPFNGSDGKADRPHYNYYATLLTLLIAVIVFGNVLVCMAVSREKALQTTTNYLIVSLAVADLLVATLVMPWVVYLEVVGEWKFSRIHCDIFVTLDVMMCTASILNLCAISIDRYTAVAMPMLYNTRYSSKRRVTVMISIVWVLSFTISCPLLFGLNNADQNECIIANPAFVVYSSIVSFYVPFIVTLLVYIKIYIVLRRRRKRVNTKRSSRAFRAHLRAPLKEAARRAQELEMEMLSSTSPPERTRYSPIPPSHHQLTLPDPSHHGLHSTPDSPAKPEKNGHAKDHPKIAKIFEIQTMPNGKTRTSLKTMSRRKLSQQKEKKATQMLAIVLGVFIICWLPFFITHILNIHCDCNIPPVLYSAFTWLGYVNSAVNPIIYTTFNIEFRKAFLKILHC
T1 sequence (P35348 whole entry): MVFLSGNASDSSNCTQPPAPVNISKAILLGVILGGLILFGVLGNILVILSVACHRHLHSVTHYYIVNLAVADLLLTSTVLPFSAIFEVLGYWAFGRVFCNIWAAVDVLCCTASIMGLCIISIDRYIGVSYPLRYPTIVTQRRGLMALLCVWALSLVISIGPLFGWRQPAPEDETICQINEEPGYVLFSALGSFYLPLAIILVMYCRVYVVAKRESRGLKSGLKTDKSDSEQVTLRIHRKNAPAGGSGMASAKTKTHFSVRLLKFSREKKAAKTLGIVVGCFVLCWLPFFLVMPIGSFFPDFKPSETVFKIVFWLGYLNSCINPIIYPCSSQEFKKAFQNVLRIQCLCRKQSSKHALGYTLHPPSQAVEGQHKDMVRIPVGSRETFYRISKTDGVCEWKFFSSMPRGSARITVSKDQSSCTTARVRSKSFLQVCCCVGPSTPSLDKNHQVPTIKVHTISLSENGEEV
T6 sequence (P41595 whole entry): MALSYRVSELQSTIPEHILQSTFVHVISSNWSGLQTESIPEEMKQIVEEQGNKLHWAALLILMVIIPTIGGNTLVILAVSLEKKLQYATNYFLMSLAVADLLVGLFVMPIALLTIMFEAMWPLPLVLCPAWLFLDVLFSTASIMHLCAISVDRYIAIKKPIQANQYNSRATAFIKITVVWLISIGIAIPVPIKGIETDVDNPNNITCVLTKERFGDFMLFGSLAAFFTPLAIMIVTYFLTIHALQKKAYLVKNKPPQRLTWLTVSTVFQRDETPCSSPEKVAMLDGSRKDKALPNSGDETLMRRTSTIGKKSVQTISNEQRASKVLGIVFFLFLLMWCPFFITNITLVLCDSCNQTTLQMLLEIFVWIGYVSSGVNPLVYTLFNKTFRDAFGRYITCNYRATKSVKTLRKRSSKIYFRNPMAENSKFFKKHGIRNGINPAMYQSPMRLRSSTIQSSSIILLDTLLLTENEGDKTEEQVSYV
T2 sequence (P21728 whole entry): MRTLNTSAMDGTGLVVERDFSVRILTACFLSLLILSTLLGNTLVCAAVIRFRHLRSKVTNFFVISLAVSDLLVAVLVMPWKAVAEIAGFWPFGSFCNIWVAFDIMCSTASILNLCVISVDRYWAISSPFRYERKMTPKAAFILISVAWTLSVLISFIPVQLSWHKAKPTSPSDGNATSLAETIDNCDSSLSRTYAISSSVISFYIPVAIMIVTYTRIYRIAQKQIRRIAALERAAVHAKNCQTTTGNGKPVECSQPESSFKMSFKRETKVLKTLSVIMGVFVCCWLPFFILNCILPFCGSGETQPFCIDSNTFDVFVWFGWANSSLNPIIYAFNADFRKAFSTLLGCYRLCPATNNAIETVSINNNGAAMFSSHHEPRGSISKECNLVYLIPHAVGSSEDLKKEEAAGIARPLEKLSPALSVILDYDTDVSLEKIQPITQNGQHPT
T5 sequence (P28223 whole entry): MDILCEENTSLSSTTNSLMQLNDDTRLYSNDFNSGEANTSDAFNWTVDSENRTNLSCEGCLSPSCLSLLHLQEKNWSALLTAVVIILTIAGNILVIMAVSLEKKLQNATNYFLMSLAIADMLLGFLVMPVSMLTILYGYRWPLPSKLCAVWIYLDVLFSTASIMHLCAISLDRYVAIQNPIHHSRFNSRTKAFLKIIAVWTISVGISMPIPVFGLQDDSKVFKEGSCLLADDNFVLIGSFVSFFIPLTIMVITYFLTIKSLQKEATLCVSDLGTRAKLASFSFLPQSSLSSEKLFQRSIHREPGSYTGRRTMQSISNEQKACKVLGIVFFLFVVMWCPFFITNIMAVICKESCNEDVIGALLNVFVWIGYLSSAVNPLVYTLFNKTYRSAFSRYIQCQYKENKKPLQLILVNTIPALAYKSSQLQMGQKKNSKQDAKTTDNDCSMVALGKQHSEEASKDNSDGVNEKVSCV
T4 sequence (P23975 whole entry): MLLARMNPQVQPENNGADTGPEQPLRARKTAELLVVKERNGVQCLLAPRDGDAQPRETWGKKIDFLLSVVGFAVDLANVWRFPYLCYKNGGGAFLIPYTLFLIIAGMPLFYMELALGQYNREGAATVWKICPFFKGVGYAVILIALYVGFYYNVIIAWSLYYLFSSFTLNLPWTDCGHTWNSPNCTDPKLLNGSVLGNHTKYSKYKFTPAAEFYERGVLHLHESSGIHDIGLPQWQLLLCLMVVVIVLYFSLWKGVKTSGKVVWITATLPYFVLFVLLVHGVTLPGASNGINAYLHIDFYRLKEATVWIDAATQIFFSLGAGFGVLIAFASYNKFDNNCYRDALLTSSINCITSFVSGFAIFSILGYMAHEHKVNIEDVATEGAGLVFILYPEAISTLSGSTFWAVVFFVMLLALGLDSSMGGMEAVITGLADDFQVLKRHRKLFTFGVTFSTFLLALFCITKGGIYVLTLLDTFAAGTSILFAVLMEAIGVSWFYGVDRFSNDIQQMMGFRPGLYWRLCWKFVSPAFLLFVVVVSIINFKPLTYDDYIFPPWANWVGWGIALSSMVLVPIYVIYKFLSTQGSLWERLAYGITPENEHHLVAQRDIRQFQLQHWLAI
T7 sequence (P31645 whole entry): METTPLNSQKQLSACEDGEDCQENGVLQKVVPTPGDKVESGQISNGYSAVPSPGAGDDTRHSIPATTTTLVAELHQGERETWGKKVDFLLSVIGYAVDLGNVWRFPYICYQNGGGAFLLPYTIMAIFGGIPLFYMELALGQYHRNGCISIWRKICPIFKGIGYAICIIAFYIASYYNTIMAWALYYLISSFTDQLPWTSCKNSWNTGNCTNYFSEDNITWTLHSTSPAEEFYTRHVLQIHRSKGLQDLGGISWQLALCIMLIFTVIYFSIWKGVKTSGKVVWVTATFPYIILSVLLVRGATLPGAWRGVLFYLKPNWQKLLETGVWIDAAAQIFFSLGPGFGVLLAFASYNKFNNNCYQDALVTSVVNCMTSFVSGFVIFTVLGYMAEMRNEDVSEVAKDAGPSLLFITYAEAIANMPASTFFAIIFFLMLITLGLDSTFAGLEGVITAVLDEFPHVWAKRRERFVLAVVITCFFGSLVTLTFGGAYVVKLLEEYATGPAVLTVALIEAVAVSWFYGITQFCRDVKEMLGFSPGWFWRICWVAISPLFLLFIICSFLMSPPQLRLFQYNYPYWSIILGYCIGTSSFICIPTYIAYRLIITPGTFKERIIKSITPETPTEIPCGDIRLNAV

With `O=C(O)COCCN1CCN(C2=Nc3ccccc3Oc3ccc(Cl)cc32)CC1` [Compound 6] the metabolic stability [1] was “highest metabolic stabilities”, the binding inhibition ([2]; 10 µM) was “substantial binding” and the binding inhibition ([3]; 10 µM) was “substantial binding”. For the same compound, the binding inhibition ([4]; 10 µM) was “substantial binding”, the binding inhibition ([5]; 10 µM) was “substantial binding” and the binding inhibition ([6]; 10 µM) was “substantial binding”. For the same compound, the binding inhibition ([7]; 10 µM) was “substantial binding”, the binding inhibition ([8]; 10 µM) was “substantial binding” and the AUC(0-inf) [9, 11] was 6780 ng·h/mL. It also gave a Cmax [9, 11] of 5490 ng/mL, a Tmax [9, 11] of 15 min and a half-life ([9]; male, C57BL/6J, ip, I.P. 10 mg/kg, brain, read-out: t1/2) of 39.7 min. For the same compound, the AUC(0-inf) [9, 12] was 5600 ng·h/mL, the Cmax [9, 12] was 6280 ng/mL and the Tmax [9, 12] was 15 min. For the same compound, the half-life ([9]; male, C57BL/6J, ip, I.P. 10 mg/kg, plasma, read-out: t1/2) was 35 min, the AUC(0-inf) [9, 13] was 520 ng·h/mL and the Cmax [9, 13] was 493 ng/mL. The Tmax [9, 13] was 15 min, the half-life ([9]; male, C57BL/6J, iv, I.V. 1 mg/kg, brain, read-out: t1/2) was 62.1 min and the AUC(0-inf) [9, 14] was 473 ng·h/mL. It also gave a Cmax [9, 14] of 562 ng/mL, a half-life ([9]; male, C57BL/6J, iv, I.V. 1 mg/kg, plasma, read-out: t1/2) of 52.5 min and a half-life ([9]; male, C57BL/6J, plasma and brain, ip, 10 mg kg−1 i.p., first-order kinetics, read-out: half-life in the plasma and brain) of ~35 min. The AUC(0-inf) [9, 15] was 3750 ng·h/mL, the Cmax [9, 15] was 2460 ng/mL and the Tmax [9, 15] was 15 min. The half-life ([9]; male, C57BL/6J, po, P.O. 10 mg/kg, brain, read-out: t1/2) was 71.9 min, the AUC(0-inf) [9, 16] was 4070 ng·h/mL and the Cmax [9, 16] was 3140 ng/mL. The Tmax [9, 16] was 15 min, the half-life ([9]; male, C57BL/6J, po, P.O. 10 mg/kg, plasma, read-out: t1/2) was 67.4 min and the “blood–brain barrier crossing” value ([9]; 10 mg kg−1 i.p.) was “readily crossed the blood–brain barrier”. For the same compound, the “motor function, vertical pole test” value ([10]; 3–30 mg i.p.) was “did not impair motor function”.
In the case of `CN1CCN(C2=Nc3ccccc3Oc3ccc(Cl)cc32)CC1` [Loxapine, reference compound], the metabolic stability [1] is reported as “metabolized rapidly”, the drug remaining unmodified ([1]; 10 µM, after 15 min) is reported as 6% and the inhibition at 10 µM ([2]; read-out: binding inhibition) is reported as > 50%. The inhibition at 10 µM ([3]; read-out: binding inhibition) was > 50%, the inhibition at 10 µM ([4]; read-out: binding inhibition) was > 50% and the inhibition at 10 µM ([5]; read-out: binding inhibition) was > 50%. For the same compound, the inhibition at 10 µM ([6]; read-out: binding inhibition) was > 50%, the inhibition at 10 µM ([7]; read-out: binding inhibition) was > 50% and the inhibition at 10 µM ([8]; read-out: binding inhibition) was > 50%. It also gave a Kp ([9]; male, C57BL/6J, brain and plasma, ip, 2.5 mg kg−1 i.p., from AUC0-inf, read-out: ratio brain/plasma) of 5.12, an AUC(0-inf) [9, 17] of 913 ng·h/mL and a Cmax [9, 17] of 493 ng/mL. It also gave a Tmax [9, 17] of 15 min, a half-life ([9]; male, C57BL/6J, ip, I.P. 2.5 mg/kg, brain, read-out: t1/2) of 82.2 min and an AUC(0-inf) [9, 18] of 178 ng·h/mL. The Cmax [9, 18] was 143 ng/mL, the Tmax [9, 18] was 15 min and the half-life ([9]; male, C57BL/6J, ip, I.P. 2.5 mg/kg, plasma, read-out: t1/2) was 61.9 min. The “motor function, vertical pole test” value ([10]; dose of ≥ 0.39 mg kg−1 i.p.) was “markedly reduced the ability of the mice to perform”.
